According to EP0993454B1, “BENZO(5,6)CYCLOHEPTA(1,2B)PYRIDINE DERIVATIVES USEFUL FOR INHIBITION OF FARNESYL PROTEIN TRANSFERASE” (SCHERING CORPORATION, priority 1997, dated 1998):

Molecular target: farnesyl protein transferase (Homo sapiens, UniProt P49354+P49356)
Test: FPT IC50 (inhibition of farnesyl protein transferase, in vitro enzyme assay)
Type: biochemical
Conditions: procedure of WO 95/10516, one collective range stated for the five listed compounds
Experimental: FPT IC50 (inhibition of farnesyl protein transferase, in vitro enzyme assay) and COS Cell IC50 (Cell-Based Assay) were determined following the assay procedures described in WO 95/10516, published April 20, 1995. GGPT IC50 (inhibition of geranylgeranyl protein transferase, in vitro enzyme assay), Cell Mat Assay, and anti-tumor activity (in vivo anti-tumor studies) could be determined by the assay procedures described in WO 95/10516. The disclosure of WO 95/10516 is incorporated herein by reference thereto.

| IC50 [nM] | SMILES |
| --- | --- |
| 2 to 42 | O=C(CC1CCNCC1)N1CCC(C2(O)c3ncc(Br)cc3CCc3cc(Cl)cc(Br)c32)CC1 (centres unmarked) [2 Step A] |
| 2 to 42 | NC(=O)CN1CCC(CC(=O)N2CCC(C3(O)c4ncc(Br)cc4CCc4cc(Cl)cc(Br)c43)CC2)CC1 (centres unmarked) [Example 3, 4-[2-[4-(3,10-dibromo-8-chloro-6,11-dihydro-11-hydroxy-5H-benzo[5,6]cyclohepta-[1,2-B]pyridin-11-yl)-1-piperidinyl]-2-oxoethyl]-1-piperidineacetamide] |
